# Measurements: patent publication US6750348B1, “Chemokine receptor binding heterocyclic compounds” (AnorMED, Inc., priority 1999, dated 2004)
# What was measured:
# Type in all cases: cell-based
# HIV-1 BaL (CCR5 using) = test: Inhibition of HIV-1 (BaL) replication in PHA-stimulated PBMC's (MTT); conditions: Human immunodeficiency virus 1, BAL, MTT assay
# Protocol: Compounds were tested for their ability to inhibit HIV-1 replication in MT-4 cells or PBMC's (peripheral blood mononucleocytes) using published procedures (for example, see: Labrosse et al. J. Virol. 1998, 6381-6388; Simmons et al. J. Virol. 1998, 8453-8457; Donzella et al. Nature Medicine 1998, 72-77; Schols et al. J. Exp. Med. 1997, 1383-1388; De Clercq et al. Antiviral Res. 1997, 147-156; and Bridger et al. U.S. patent application Ser. No. 09/111,895). In addition to the above references, experimental methods for performing anti-viral assays can also be found in: Bridger et al. J. Med. Chem. 1995, 38, 366-378; Bridger et al. J. Med. Chem. 1996, 39, 109-119; Bridger et al. U.S. Pat. No. 5,698,546; Bridger et al. U.S. Pat. No. 5,583,131; Bridger et al. U.S. Pat. No. 5,817,807; De Clercq et al. Antimicrob. Agents and Chemother. 1994, 38, 668-674.
# The HIV-1 strain BaL is M-tropic (macrophage tropic) strain that exclusively uses CCR5 as a co-receptor for entry into cells. PBMC's (from healthy donors) express all chemokine receptors including CXCR4 and CCR5.
# [1] = system: SDF-1α induced Ca flux in SUP-T1 cells; test: Inhibition of SDF-1α induced Ca flux in SUP-T1 cells (FLIPR); conditions: Homo sapiens, at 20 μg/mL, read-out: inhibited SDF-1α induced Ca flux
# Protocol: (§1) Loading dye: Fluo-3, AM (Molecular Probes F-1241) is dissolved in anhydrous DMSO and stored frozen in aliquots. To increase the solubility of the dye in the loading medium, 10% (w/v) pluronic acid (Molecular Probes F-127) is added to the Fluo-3 stock solution immediately before use.
# (§2) HBSS+20 mM Hepes buffer+0.2% BSA, pH 7.4. HBSS 10× [(w/o phenol red and sodium bicarbonate (Gibco 14 065-049)]; Hepes buffer 1M (Gibco 15 630-056), BSA (Sigma A3675). The flux buffer is vacuum-filtered and stored refrigerated for a maximum of 5 days. Before use in the experiment, the buffer is warmed at 37° C. in a waterbath.
# (§3) The test compounds were diluted in flux buffer and added to 4 wells of a black microplate (4 parallel measurements per compound).
# (§4) The chemokines are diluted in flux buffer to concentrations that are 4-fold higher than the desired concentrations required for stimulation of the cells (i.e. 2.5 nM for SDF-1α and 0.6 nM for RANTES). The chemokines were added to untreated 96-well Sero well compound plates (International Medical, Sterilin code 611F96). In the negative control well's (baseline monitoring), flux buffer is added instead of chemokine. As a positive control to check for dye loading efficiency, 20 μM digitonin (final concentration) was also included. The agonist plate was incubated in the FLIPR (37° C.) for 15-30 min.
# SUP-T1 cells were centrifuged at room temperature (RT) and re-suspended in loading medium (RPMI-1640 containing 2% FBS and 4 μM Fluo-3, AM). The cells were incubate at room temperature for 45 min. then washed twice in flux buffer then incubated in flux buffer at room temperature for 10 min. The cells were centrifuged and re-suspended in flux buffer at a density of 3×10^6 cells per mL. […] The microplate is then gently centrifuged at room temperature. Homogeneous spreading of the cells on the bottom of the microplate wells was then confirmed with a microscope and the microplate was incubated in the FLIPR (37° C.) for 10 min. prior to testing.
# (§5) The FLIPR settings (camera exposure time and laser power) are adjusted to obtain initial fluorescence values between 8,000 and 10,000 units. After monitoring a 20 second-baseline, the agonist (chemokine) (50 μL) is added by automatic pipettor with black pipette tips. Fluorescence is measured simultaneously in all wells of the microplate every 2 seconds (first 2 min) and thereafter every 6 seconds (additional 2 min). The average ca-flux measured in each set of 4 identical wells (one test compound) was calculated by the FLIPR software.
# The compounds of the current invention were tested for inhibition of SDF-1α induced Ca flux in SUP-T1 cells using the method described above.
# HIV-1 NL4.3 or IIIB = test: Inhibition of HIV-1 (NL4.3 or IIIB) replication in MT-4 cells (MTT); conditions: Human immunodeficiency virus 1, IIIB, MT4, read-out: EC50, inhibition of HIV-1 NL4.3 or IIIB replication
# Summary of the method: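 CXCR4-tropic virus infected MT-4 cells at MOI 0.01 (100× CCID50) across a range of compound concentrations, with cytotoxicity run in parallel. Viable cells counted by MTT after 5 days. EC50 is the concentration protecting 50% of infected cells from viral cytopathicity.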
# [2] = system: RANTES induced Ca flux in U87.CCR5 cells; test: Inhibition of RANTES induced Ca flux in U87.CCR5 cells (FLIPR); conditions: U-87-CCR5, at 20 μg/mL, read-out: inhibited RANTES induced Ca flux
# Protocol: as §1, §2, §3, §4, §5
# U87.CCR5 cells were seeded into the black microplates (Costar 3603) on the day before the experiment. The culture medium was removed from the cells and 100 μL of loading medium (DMEM+10% FBS+4 μM Fluo-3, AM) was added to each well and the plate was incubate at 37° C. for 45 min. The loading medium was then removed an the cells were washed twice with flux buffer using the CELL WASH microplate washer (Labsystems) followed by incubation in flux buffer for 10 min. at room temperature (the washing procedure was repeated twice). Finally, the wash buffer was removed from the microplate wells and 150 μL of the test compound, diluted in flux buffer to the desired concentration. The microplate was then incubated in the FLIPR drawer for 10 min. prior to testing. Measurements were performed as described above.
# The compounds of the current invention were tested for inhibition of RANTES induced Ca flux in U87.CCR5 cells.
Compound,EC50 (HIV-1 BaL (CCR5 using)) [µg/mL],inhibition at 20 µg/mL [1] [%],EC50 (HIV-1 NL4.3 or IIIB) [µg/mL],inhibition at 20 µg/mL [2] [%]
"c1ccc(-c2ccc3c(n2)C(N(Cc2ccc(CNCc4ccccn4)cc2)Cc2ccccn2)CCC3)cc1 (stereo not shown) [Example 12, N,N′-bis(2-pyridinylmethyl)-N′-(2-phenyl-5,6,7,8-tetrahydro-8-quinolinyl)-1,4-benzenedimethanamine]",< 20,> 20,< 20,–
"c1ccc(CNCc2ccc(CNC3CCCc4ncccc43)cc2)nc1 (stereo not shown) [Example 13, N-(2-pyridinylmethyl)-N′-(5,6,7,8-tetrahydro-5-quinolinyl)-1,4-benzenedimethanamine]",< 20,–,< 20,–
"c1ccc(CNCc2ccc(CN(Cc3ncc[nH]3)C3CCCc4ncccc43)cc2)nc1 (stereo not shown) [Example 14, N-(2-pyridinylmethyl)-N′-(1H-imidazol-2-ylmethyl)-N′-(5,6,7,8-tetrahydro-5-quinolinyl)-1,4-benzenedimethanamine]",< 20,–,< 20,–
"c1ccc(CNCc2ccc(CN(Cc3c[nH]cn3)C3CCCc4cccnc43)cc2)nc1 (stereo not shown) [Example 17, N-(2-pyridinylmethyl)-N′-(1H-imidazol-4-ylmethyl)-N′-(5,6,7,8-tetrahydro-8-quinolinyl)-1,4-benzenedimethanamine]",< 20,> 20,< 20,–
"c1ccc(CNCc2ccc(CN(CCCNCc3ccc4ccccc4c3)C3CCCc4cccnc43)cc2)nc1 (stereo not shown) [Example 22, N-(2-pyridinylmethyl)-N′-[3-((2-naphthalenylmethyl)amino)propyl]-N′-(5,6,7,8-tetrahydro-8-quinolinyl)-1,4-benzenedimethanamine]",–,> 20,–,> 20
"c1ccc(CNCc2ccc(CN(C3CCNC3)C3CCCc4cccnc43)cc2)nc1 (stereo not shown) [Example 32, N-(2-pyridinylmethyl)-N′-3-pyrrolidinyl-N′-(5,6,7,8-tetrahydro-8-quinolinyl)-1,4-benzenedimethanamine]",< 20,–,< 20,–
"c1ccc(CNCc2ccc(CN(C3CCNCC3)C3CCCc4cccnc43)cc2)nc1 (stereo not shown) [Example 33, N-(2-pyridinylmethyl)-N′-4-piperidinyl-N′-(5,6,7,8-tetrahydro-8-quinolinyl)-1,4-benzenedimethanamine]",< 20,–,< 20,–
"c1ccc(NCCN(Cc2ccc(CNCc3ccccn3)cc2)C2CCCc3cccnc32)cc1 (stereo not shown) [Example 34, N-(2-pyridinylmethyl)-N′-[2-[(phenyl)amino]ethyl]-N′-(5,6,7,8-tetrahydro-8-quinolinyl)-1,4-benzenedimethanamine]",< 20,–,< 20,–
"COc1ccc2c(c1)CCC(NCc1ccc(CNCc3ccccn3)cc1)C2 (stereo not shown) [Example 36, N-(2-pyridinylmethyl)-N′-(6-methoxy-1,2,3,4-tetrahydro-2-naphthalenyl)-1,4-benzenedimethanamine]",< 20,–,< 20,–
"Oc1cccc2c1CC(N(Cc1ccc(CNCc3ccccn3)cc1)Cc1ncc[nH]1)CC2 (stereo not shown) [Example 42, N-(2-pyridinylmethyl)-N′-(1H-imidazol-2-ylmethyl)-N′-(8-hydroxy-1,2,3,4-tetrahydro-2-naphthalenyl)-1,4-benzenedimethanamine]",< 20,–,< 20,–
"Fc1cccc2c1CC(N(Cc1ccc(CNCc3ccccn3)cc1)Cc1ncc[nH]1)CC2 (stereo not shown) [Example 44, N-(2-pyridinylmethyl)-N′-(1H-imidazol-2-ylmethyl)-N′-(8-Fluoro-1,2,3,4-tetrahydro-2-naphthalenyl)-1,4-benzenedimethanamine]",–,–,< 20,> 20
"c1ccc(CNCc2ccc(CN(CCNCc3ccc4ccccc4c3)C3CCCc4cccnc43)cc2)nc1 (stereo not shown) [Example 47, N-(2-pyridinylmethyl)-N′-[2-[(2-naphthalenylmethyl)amino]ethyl]-N′-(5,6,7,8-tetrahydro-8-quinolinyl)-1,4-benzenedimethanamine]",–,> 20,< 20,> 20
"c1ccc(CNCCN(Cc2ccc(CNCc3ccccn3)cc2)C2CCCc3cccnc32)nc1 (stereo not shown) [Example 49, N-(2-pyridinylmethyl)-N′-[2-[(2-pyridinylmethyl)amino]ethyl]-N′-(5,6,7,8-tetrahydro-8-quinolinyl)-1,4-benzenedimethanamine]",–,> 20,< 20,> 20
"c1ccc(CNCc2ccc(CN(CCNCc3ccco3)C3CCCc4cccnc43)cc2)nc1 (stereo not shown) [Example 50, N-(2-pyridinylmethyl)-N′-[2-[(2-furanylmethyl)amino]ethyl]-N′-(5,6,7,8-tetrahydro-8-quinolinyl)-1,4-benzenedimethanamine]",–,> 20,< 20,> 20
"c1ccc(CNCc2ccc(CN(c3nc4ccccc4o3)C3CCCc4cccnc43)cc2)nc1 (stereo not shown) [Example 67, N-(2-pyridinylmethyl)-N′-(2-benzoxazolyl)-N′-(5,6,7,8-tetrahydro-8-quinolinyl)-1,4-benzenedimethanamine]",–,–,< 20,> 20
"C[C@H](N)C(=O)N(Cc1ccc(CNCc2ccccn2)cc1)C1CCCc2cccnc21 (stereo partly shown) [Example 73, N-[[4-[[(2-pyridinylmethyl)amino]methyl]phenyl]methyl]-N-(5,6,7,8-tetrahydro-8-quinolinyl)-(L)-alaninamide]",–,> 20,–,> 20
"O=C([C@@H]1CCCN1)N(Cc1ccc(CNCc2ccccn2)cc1)C1CCCc2cccnc21 (stereo partly shown) [Example 76, N-[[4-[[(2-pyridinylmethyl)amino]methyl]phenyl]methyl]-N-(5,6,7,8-tetrahydro-8-quinolinyl)-(L)-prolinamide]",–,> 20,–,> 20
"NCCCC[C@H](N)C(=O)N(Cc1ccc(CNCc2ccccn2)cc1)C1CCCc2cccnc21 (stereo partly shown) [Example 77, N-[[4-[[(2-pyridinylmethyl)amino]methyl]phenyl]methyl]-N-(5,6,7,8-tetrahydro-8-quinolinyl)-(L)-lysinamide]",–,> 20,–,> 20
"COc1ccc(CCN(Cc2ccc(CNC3CCCc4cccnc43)cc2)Cc2ccccn2)cc1 (stereo not shown) [Example 91, N-(2-pyridinylmethyl)-N-[2-(4-methoxyphenyl)ethyl]-N′-(5,6,7,8-tetrahydro-8-quinolinyl)-1,4-benzenedimethanamine]",< 20,–,< 20,–
